The record followed here is ChEMBL document CHEMBL3745630, “Cloning, characterization and anion inhibition studies of a γ-carbonic anhydrase from the Antarctic bacterium Colwellia psychrerythraea” (Bioorg Med Chem, 2016).

This experiment can be described thus: Inhibition of Colwellia psychrerythraea gamma carbonic anhydrase expressed in Escherichia coli incubated for 15 mins prior to testing by stopped flow CO2 hydration method.

SMILES strings stand for the structures.

With `N#CO` [SODIUM CYANATE], the affinity, expressed as Ki, was 2.5 mM.

For `N=C=S` [SODIUM ISOTHIOCYANATE], affinity was put at a Ki of 3.3 mM.

With `F[B-](F)(F)F.[Na+]` [SODIUM TETRAFLUOROBORATE], the Ki – broadly, the dissociation constant of the complex between target and ligand, obtained from inhibition or displacement – was greater than 100 mM.

For `O=NO` [SODIUM NITRITE], the affinity, expressed as Ki, was 8.8 mM.

For the compound `[O-][Cl+3]([O-])([O-])O` [SODIUM PERCHLORATE], the inhibition constant Ki is greater than 100 mM.

Consider `N=C=[Se]` [SODIUM ISOSELENOCYANATE], for which the affinity, expressed as Ki, was 6 mM. In other words, the millimolar range.

Consider `O=[Se](=O)(O)O` [SODIUM SELENATE], for which affinity was put at a Ki of 8.3 mM.

As to `[Cl-].[Na+]` [SODIUM CHLORIDE], the inhibitory constant (Ki) turned out to be 9 mM.

Take `O=S([O-])O.[Na+]` [SODIUM BISULFITE]: the Ki was found to be 37.5 mM. Against the preceding compound, the Ki is about 4.2-fold higher.

`NS(=O)(=O)O` [SULFAMATE]: the Ki is 0.037 mM. This Ki lies about 1000-fold lower than the previous one.

In turn, `O=C([O-])O.[Na+]` [SODIUM BICARBONATE] registered an inhibition constant (Ki) of 1.7 mM.

On to `O=S(=O)([O-])[O-].[Na+].[Na+]` [SODIUM SULFATE ANHYDROUS], for which the affinity, expressed as Ki, was 9.4 mM.

In turn, `OB(O)c1ccccc1` [PHENYLBORONIC ACID] had a Ki of 0.026 mM. Against the preceding compound, the Ki is about 360-fold lower.

In the case of `O=[Te](=O)(O)O` [SODIUM TELLURATE], the affinity, expressed as Ki, was 5.1 mM.

Turning to `[F-].[Na+]` [SODIUM FLUORIDE], the Ki was greater than 100 mM.

Regarding `F[P-](F)(F)(F)(F)F.[Na+]`, the affinity, expressed as Ki, was 5.6 mM.

Regarding `CCN(CC)C(=S)S` [DITIOCARB SODIUM], affinity was put at a Ki of 0.58 mM.

Consider `O=[As](O)(O)c1ccccc1` [PHENYLARSONIC ACID], for which the inhibition constant (Ki) was determined as 0.038 mM. This Ki lies about 15-fold lower than the previous one.

The compound `O=C([O-])[O-].[Na+].[Na+]` [SODIUM CARBONATE] gave a Ki of 1.4 mM.

`O=[N+]([O-])[O-].[Na+]` [SODIUM NITRATE] had a Ki of 21.7 mM.

As for `O=BOB(O)OB(O)OB=O` [SODIUM TETRABORATE], affinity was put at a Ki of 4.7 mM.

Turning to `O=S(=O)(O)OOS(=O)(=O)O` [SODIUM PERSULFATE], the affinity corresponds to a Ki of 4.5 mM. This Ki and that of the compound before are within 1.5-fold of each other.

Turning to `[I-].[Na+]` [SODIUM IODIDE], the Ki worked out at 8.7 mM. This Ki lies about 1.9-fold higher than the previous one.

On to `S` [SODIUM HYDROSULFIDE], for which the inhibitory constant (Ki) is 4.8 mM.

`[N-]=[N+]=[N-]` [SODIUM AZIDE]: the Ki is greater than 100 mM.

On to `NS(N)(=O)=O` [SULFAMIDE], for which the affinity corresponds to a Ki of 0.008 mM.

Turning to `[Br-].[Na+]` [SODIUM BROMIDE], the inhibitory constant (Ki) is greater than 100 mM.

Consider `S=C(S)S` [SODIUM CARBONOTRITHIOATE], for which the affinity corresponds to a Ki of 3.8 mM.
